Test results as given in patent US20240043386A1, “Modulators of the Cystic Fibrosis Transmembrane Conductance Regulator Protein and Methods of Use” (AbbVie Global Enterprises Ltd., priority 2021, published 2024).
Like-named read-outs stand apart in the source and are kept apart here.

Key:
F508del/F508del CFTR = target: T1, F508del/F508del CFTR (Homo sapiens, UniProt P13569, DEL508-508); test: Trans-Epithelial Current Clamp (TECC) assay using primary human bronchial epithelial cells; assay type: cell-based; details: for Emax (% Dual): maximum percent activity relative to positive control (co-corrector 0.15 μM + potentiator 0.45 μM = 100%), primary hBE cells F508del/F508del; for EC50: primary hBE cells homozygous F508del/F508del, test C2 corrector with co-corrector and potentiator, 18-24 hours at 37° C., equivalent CFTR current (IEQ)/AUC
T1 construct: cells isolated from CF patients with the homozygous mutation; endogenous in cells; host or cells: primary human bronchial epithelial (hBE) cells from CF patients homozygous for F508del
In short: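 Readout is the equivalent CFTR current (IEQ, from offset-corrected VT and RT) plus AUC from forskolin peak to bumetanide addition, recorded on TECC-24 at 36.5° C. Beforehand, homozygous F508del hBE cultures received correctors with co-corrector and potentiator basolaterally for 18-24 h at 37° C.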

F508delCFTR = target: T2, F508delCFTR (Homo sapiens, UniProt P13569, DEL508-508); test: Cell Surface Expression-Horse Radish Peroxidase (CSE-HRP) assay in CFBE41o-F508delCFTR-HRP cells; assay type: cell-based; details: for EC50: CFBE41o-F508delCFTR-HRP cells, 18-24 hours at 33° C., luminescence; for Maximum % activity (without co-corrector) / Maximum % activity (with co-corrector): normalized to on-plate positive control corrector (2 μM)
T2 construct: expressed in transfected cells; host or cells: CFBE41o- human lung-derived epithelial cell line, doxycycline-inducible expression
In short: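 Test compounds were tested alone or alongside a co-corrector (2 μM), 8-point 3-fold series from 20 or 30 μM, for 18–24 h at 33 °C on doxycycline-induced CFBE41o-F508delCFTR-HRP cells. After washing, luminol luminescence reported cell-surface HRP-tagged CFTR, normalized to the positive control (% activity). EC50 was fitted with a variable Hill slope sigmoid from triplicate plates; Z′ >0.5 required.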

[1] = with co-corrector (2 μM), read-out: EC50 (with co-corrector)
[2] = without co-corrector, read-out: EC50 (without co-corrector)

T1 sequence (P13569 with tags, fused parts or gaps DEL508-508): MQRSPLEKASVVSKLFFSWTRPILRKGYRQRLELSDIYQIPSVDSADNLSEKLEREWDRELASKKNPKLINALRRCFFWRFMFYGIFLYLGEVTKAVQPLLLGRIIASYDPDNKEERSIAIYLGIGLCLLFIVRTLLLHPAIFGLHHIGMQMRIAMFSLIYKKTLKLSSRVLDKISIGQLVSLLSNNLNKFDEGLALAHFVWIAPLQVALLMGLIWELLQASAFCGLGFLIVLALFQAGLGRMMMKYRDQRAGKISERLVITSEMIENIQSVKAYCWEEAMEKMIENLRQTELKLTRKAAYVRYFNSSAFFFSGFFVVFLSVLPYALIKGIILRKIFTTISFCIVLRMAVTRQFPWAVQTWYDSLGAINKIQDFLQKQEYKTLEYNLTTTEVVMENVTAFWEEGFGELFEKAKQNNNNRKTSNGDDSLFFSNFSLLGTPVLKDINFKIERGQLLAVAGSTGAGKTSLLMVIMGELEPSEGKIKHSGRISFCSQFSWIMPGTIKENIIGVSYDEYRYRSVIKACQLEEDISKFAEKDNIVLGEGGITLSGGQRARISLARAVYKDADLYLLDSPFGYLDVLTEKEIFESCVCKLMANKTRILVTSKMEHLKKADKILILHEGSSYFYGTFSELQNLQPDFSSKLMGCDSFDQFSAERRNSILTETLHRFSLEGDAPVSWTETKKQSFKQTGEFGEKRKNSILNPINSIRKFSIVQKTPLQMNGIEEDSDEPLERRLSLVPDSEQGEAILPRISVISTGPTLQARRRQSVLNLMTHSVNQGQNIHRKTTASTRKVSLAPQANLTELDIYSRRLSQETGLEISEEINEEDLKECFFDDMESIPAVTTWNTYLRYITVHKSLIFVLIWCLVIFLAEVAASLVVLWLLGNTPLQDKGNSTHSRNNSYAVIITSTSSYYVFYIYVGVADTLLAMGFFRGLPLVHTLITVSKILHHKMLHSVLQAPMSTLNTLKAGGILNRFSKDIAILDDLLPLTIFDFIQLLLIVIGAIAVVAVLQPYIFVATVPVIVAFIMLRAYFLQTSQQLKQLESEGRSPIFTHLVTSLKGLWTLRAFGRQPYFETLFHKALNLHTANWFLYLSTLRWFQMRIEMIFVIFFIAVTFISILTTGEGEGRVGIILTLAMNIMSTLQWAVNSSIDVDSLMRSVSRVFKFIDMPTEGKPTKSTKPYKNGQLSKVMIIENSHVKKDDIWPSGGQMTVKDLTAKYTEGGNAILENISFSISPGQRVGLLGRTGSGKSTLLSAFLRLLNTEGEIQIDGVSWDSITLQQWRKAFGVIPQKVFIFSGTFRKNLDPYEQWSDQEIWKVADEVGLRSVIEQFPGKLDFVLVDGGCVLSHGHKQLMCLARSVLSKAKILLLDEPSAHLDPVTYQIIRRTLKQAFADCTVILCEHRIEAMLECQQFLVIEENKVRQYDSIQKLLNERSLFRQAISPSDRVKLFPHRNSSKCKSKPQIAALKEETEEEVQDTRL
T2 sequence (P13569 with tags, fused parts or gaps DEL508-508): as above

Structure (SMILES)	Emax (% Dual) (F508del/F508del CFTR)	EC50 (F508del/F508del CFTR)	EC50 (F508delCFTR; [1])	EC50 (F508delCFTR; [2])	Maximum % activity (without co-corrector) (F508delCFTR; without co-corrector)	Maximum % activity (with co-corrector) (F508delCFTR; with co-corrector (2 μM))
COc1ccc(C)cc1[C@]1(C(=O)NS(=O)(=O)c2cccc3nc(C)ccc23)C[C@@H]1c1cccc(C(C)C)n1 [Example 57, (1S,2S)-1-(2-methoxy-5-methylphenyl)-N-(2-methylquinoline-5-sulfonyl)-2-[6-(propan-2-yl)pyridin-2-yl]cyclopropane-1-carboxamide]	253 % Dual	19.2 nM	510 nM	1130 nM		
COc1cccc([C@@H]2C[C@]2(C(=O)NS(=O)(=O)c2cccc3nc(C)ccc23)c2cc(C)ccc2OC)c1 (racemic) [Example 15, rac-(1r,2s)-1-(2-methoxy-5-methylphenyl)-2-(3-methoxyphenyl)-N-(2-methylquinoline-5-sulfonyl)cyclopropane-1-carboxamide]	308 % Dual	0.84 nM	698 nM	1010 nM		
COc1ccc([C@@H]2C[C@]2(C(=O)NS(=O)(=O)c2cccc3nc(C)ccc23)c2cc(C)ccc2OC)c(OC)n1 (single isomer, unassigned) [Example 93]	271 % Dual	42.6 nM	132 nM	268 nM	491%	
COc1ccc(C)cc1[C@]1(C(=O)NS(=O)(=O)c2cccc3nc(C)ccc23)C[C@@H]1c1ccc(C(F)F)nc1 [Example 70, (1S,2R)-2-[6-(difluoromethyl)pyridin-3-yl]-1-(2-methoxy-5-methylphenyl)-N-(2-methylquinoline-5-sulfonyl)cyclopropane-1-carboxamide]	291 % Dual	11.8 nM	2600 nM	4230 nM	482%	
COc1ccc(C)cc1[C@@]1(C(=O)NS(=O)(=O)c2cccc3nc(C)ccc23)C[C@H]1c1cnc(C)c(F)c1 (single isomer, unassigned) [Example 101]	199 % Dual	147 nM	884 nM	1000 nM	243%	842%
COc1ccc(C)cc1[C@]1(C(=O)NS(=O)(=O)c2cccc3nc(C)ccc23)C[C@@H]1c1cnc(OC)c(C)c1 [Example 103, (1S,2R)-1-(2-methoxy-5-methylphenyl)-2-(6-methoxy-5-methylpyridin-3-yl)-N-(2-methylquinoline-5-sulfonyl)cyclopropane-1-carboxamide]	266 % Dual	1.8 nM	587 nM	714 nM	800%	
COc1ccc(C)cc1[C@@]1(C(=O)NS(=O)(=O)c2cccc3nc(C)ccc23)C[C@H]1c1cccc(F)c1 (single isomer, unassigned) [Example 21]	213 % Dual	2 nM	506 nM	1090 nM		
COc1ccc([C@H]2C[C@@]2(C(=O)NS(=O)(=O)c2cccc3nc(C)ccc23)c2cc(C)ccc2OC)c(C)n1 [Example 72, (1S,2R)-1-(2-methoxy-5-methylphenyl)-2-(6-methoxy-2-methylpyridin-3-yl)-N-(2-methylquinoline-5-sulfonyl)cyclopropane-1-carboxamide]	359 % Dual	13.6 nM	1540 nM	3330 nM	651%	
COc1ccc(C)cc1[C@]1(C(=O)NS(=O)(=O)c2cccc3nc(C)ccc23)C[C@@H]1c1cnc(OC)c(Cl)c1 [Example 102, (1S,2R)-2-(5-chloro-6-methoxypyridin-3-yl)-1-(2-methoxy-5-methylphenyl)-N-(2-methylquinoline-5-sulfonyl)cyclopropane-1-carboxamide]	397 % Dual	32.7 nM	825 nM	2300 nM		
COc1cnc([C@@H]2C[C@]2(C(=O)NS(=O)(=O)c2cccc3nc(C)ccc23)c2cc(C)ccc2OC)cn1 (racemic) [Example 39, rac-(1r,2r)-1-(2-methoxy-5-methylphenyl)-2-(5-methoxypyrazin-2-yl)-N-(2-methylquinoline-5-sulfonyl)cyclopropane-1-carboxamide]	317 % Dual	18 nM	639 nM	1230 nM	563%	
COc1nccc([C@@H]2C[C@]2(C(=O)NS(=O)(=O)c2cccc3nc(C)ccc23)c2cc(C)ccc2OC)n1 (racemic) [Example 95, rac-(1r,2r)-1-(2-methoxy-5-methylphenyl)-2-(2-methoxypyrimidin-4-yl)-N-(2-methylquinoline-5-sulfonyl)cyclopropane-1-carboxamide]	209 % Dual	12.6 nM	855 nM	1810 nM	749%	
COc1ccc(C)cc1[C@@]1(C(=O)NS(=O)(=O)c2cccc3nc(C)ccc23)C[C@H]1c1ccccc1 (racemic) [Example 1, rac-(1r,2s)-1-(2-methoxy-5-methylphenyl)-N-(2-methylquinoline-5-sulfonyl)-2-phenylcyclopropane-1-carboxamide]	389 % Dual	5 nM	1430 nM	2840 nM		
COc1ccc([C@@H]2C[C@]2(C(=O)NS(=O)(=O)c2cccc3nc(C)ccc23)c2cc(C)ccc2OC)cn1 [Example 33, (1R,2S)-1-(2-methoxy-5-methylphenyl)-2-(6-methoxypyridin-3-yl)-N-(2-methylquinoline-5-sulfonyl)cyclopropane-1-carboxamide]	215 % Dual	48.8 nM	906 nM	1270 nM	470%	
COc1ccc([C@@H]2C[C@]2(C(=O)NS(=O)(=O)c2cccc3nc(C)ccc23)c2cc(C)ccc2OC)cc1 (single isomer, unassigned) [Example 17]	296 % Dual	0.66 nM		2380 nM		
COc1cccc([C@@H]2C[C@]2(C(=O)NS(=O)(=O)c2cccc3nc(C)ccc23)c2cc(C)ccc2OC)n1 [Example 44, (1R,2R)-1-(2-methoxy-5-methylphenyl)-2-(6-methoxypyridin-2-yl)-N-(2-methylquinoline-5-sulfonyl)cyclopropane-1-carboxamide]	193 % Dual	16.6 nM	865 nM	1410 nM	384%	982%
CCOc1cccc([C@H]2C[C@@]2(C(=O)NS(=O)(=O)c2cccc3nc(C)ccc23)c2cc(C)ccc2OC)n1 [Example 55, (1S,2S)-2-(6-ethoxypyridin-2-yl)-1-(2-methoxy-5-methylphenyl)-N-(2-methylquinoline-5-sulfonyl)cyclopropane-1-carboxamide]	341 % Dual	5.86 nM	339 nM	1000 nM		
COc1ccc(C)cc1[C@]1(C(=O)NS(=O)(=O)c2cccc3nc(C)ccc23)C[C@@H]1c1ccccc1C(F)(F)F (racemic) [Example 29, rac-(1r,2s)-1-(2-methoxy-5-methylphenyl)-N-(2-methylquinoline-5-sulfonyl)-2-[2-(trifluoromethyl)phenyl]cyclopropane-1-carboxamide]	241 % Dual	7.7 nM	164 nM	273 nM	666%	
CCOc1cnc([C@@H]2C[C@]2(C(=O)NS(=O)(=O)c2cccc3nc(C)ccc23)c2cc(C)ccc2OC)cn1 (single isomer, unassigned) [Example 65]	208 % Dual	19.3 nM	586 nM	1340 nM	394%	828%
COc1ccc(C)cc1[C@@]1(C(=O)NS(=O)(=O)c2cccc3nc(C)ccc23)C[C@H]1c1ccccn1 [Example 13, (1R,2R)-1-(2-methoxy-5-methylphenyl)-N-(2-methylquinoline-5-sulfonyl)-2-(pyridin-2-yl)cyclopropane-1-carboxamide]	232 % Dual	57.7 nM	1490 nM	2480 nM		
COc1nccc([C@H]2C[C@@]2(C(=O)NS(=O)(=O)c2cccc3nc(C)ccc23)c2cc(C)ccc2OC)n1 (single isomer, unassigned) [Example 98]	201 % Dual	21 nM	804 nM	1440 nM		
COc1ccc(C)cc1[C@@]1(C(=O)NS(=O)(=O)c2cccc3nc(C)ccc23)C[C@H]1c1cnc(C(C)C)cn1 (single isomer, unassigned) [Example 63]	315 % Dual	97 nM	890 nM	1740 nM	399%	847%
